From US20180009764A1, “METHOD FOR TREATING MACROPHAGE MIGRATION INHIBITORY FACTOR (MIF)-IMPLICATED DISEASES AND CONDITIONS WITH IODO PYRIMIDINE DERIVATIVES” (UNIVERSITY OF LOUISVILLE RESEARCH FOUNDATION, INC., priority 2009, published 2018)

Key:
pancreatic tumor model = assay: Efficacy study in a pancreatic tumor model; type: in vivo; conditions: daily 40 mg/kg IP; for Survival: FIG. 10
Method: The activity of the compounds of the invention was investigated in a pancreatic tumor model using an experiment similar to the one described in EXAMPLE 69. Compounds ACT-MIF-002 and ACT-MIF-003 were dosed daily at 40 mg/kg via IP administration.
Lumbar regions of the control and treated groups were excised and sent for histopathological evaluation. […] In the example shown in FIG. 11, bone marrow of the vehicle treated mice is consistent with bone metastases (1) with evidence of surrounding skeletal muscle metastases from invading marrow tumor cells (2 and 3).

MDR1-MDCK monolayers = assay: MDR1-MDCK cell permeability and transport; type: in vitro ADME; conditions: for Efflux: class in words
Method: (§1) Cell permeability and transport mechanisms in Caco-2 and MDR1-MDCK monolayers experiments were performed in triplicate in the apical-to-basolateral and basolateral-to-apical direction using […]® wells containing either Caco-2 or MDR1-MDCK monolayers. A modified Hanks buffer pH 7.4 was used in both reservoir and receiver wells with the addition of 1% BSA in the receiver side. Confluent monolayers were used and their integrity was verified using reference compounds (Atenolol as a low permeability reference compound and Propanolol as a high permeability reference compound). A sample in the basolateral and apical sides was taken after 2 hours and the concentration measured by LC/MS-MS.

Caco-2 monolayers = assay: Caco-2 cell permeability and transport; type: in vitro ADME; parameters: Caco-2 Permeability Papp B-A / Caco-2 Permeability Papp A-B: unit not given here; conditions: for Caco-2 Permeability Papp A-B: apical-to-basolateral
Method: as §1

[1] = Caco-2 cell permeability and transport; type: in vitro ADME; parameters: Caco-2 Permeability Papp B-A / Caco-2 Permeability Papp A-B: unit not given here; conditions: human, Caco-2, pH 7.4
Method: as §1

in vitro = in vitro ADME; conditions: human, plasma, Human Plasma Protein Binding % Bound
Source text: Plasma protein binding was ascertained using dialysis equilibrium methods known in the art.

[2] = system: Chick Chorioallantoic Membrane (CAM); assay: Chick chorioallantoic membrane (CAM) assay, o ring; type: in vivo; conditions: for Blood Vessel Density: o ring; for Anti-angiogenic properties: CAM assay, in words
Method: 8 groups with 10 embryos in each group were used in the experiment described below. Fresh fertile eggs were incubated for 3 days in a standard egg incubator at 37° C. for 3 days. On Day 3, eggs were cracked under sterile conditions and embryos were placed into 20×100 mm plastic plates and cultivated at 37° C. in an embryo incubator with a water reservoir on the bottom shelf. Air was continuously bubbled into the water reservoir using a small pump so that the humidity in the incubator is kept constant. On Day 6, a sterile silicon “o” ring was placed on each CAM and test compound dissolved in 0.5% methylcellulose was placed into each “o” ring in a sterile hood. Paclitaxel was used as a positive control. Embryos were returned to the incubator after addition of test material. Control embryos received 10 μL of vehicle alone. On Day 8, embryos were removed from the incubator and kept at room temperature while blood vessel density were determined under each “o” ring using an image capturing system at a magnification of 160×. The blood vessel density was measured using an angiogenesis scoring system in that arithmetic numbers 0 to 5 (or exponential numbers 1 to 32) are used to indicate number of blood vessels present at the treatment sites on the CAM. Number 5 represents the highest density and 0 represents no angiogenesis. The percent of inhibition at each dosing site was calculated using the score recorded for that site divided by the mean score obtained from the appropriate control samples for each individual experiment. The percent of inhibition for each dose of a given compound was calculated by pooling all results obtained for that dose from 8-10 embryos.

[3] = Pharmacokinetics parameters in rats; type: in vivo; conditions: rat, plasma; for Vd: intravenous, read-out: Volume of distribution; for clearance: iv, after i.v. administration; for half-life: read-out: Terminal plasma half-life (converted)
Method: The pharmacokinetic parameters of several compounds were investigated in rodents. Both oral and iv administration were investigated in rats. Blood samples were collected over time; plasma was analyzed using an LC/MS-MS method. Pharmacokinetic parameters were calculated using Win-NonLin. Terminal plasma half-lives were 7.10 hr for ACT-MIF-001, 1.66 hr for ACT-MIF-002, and 1.50 hr for ACT-MIF-003. […] The volume of distribution values were 72666 mL/kg for ACT-MIF-001, 2118 mL/kg for ACT-MIF-002, and 1926 mL/kg for ACT-MIF-003.

MIF = target: T1, MIF (Homo sapiens, UniProt P14174); assay: MIF cell lysate enzymatic inhibition; type: biochemical; conditions: cell lysates
T1 construct: the enzymatic activity of MIF present in cell lysates; endogenous in cells
T1 sequence (P14174 2-115 limits assumed): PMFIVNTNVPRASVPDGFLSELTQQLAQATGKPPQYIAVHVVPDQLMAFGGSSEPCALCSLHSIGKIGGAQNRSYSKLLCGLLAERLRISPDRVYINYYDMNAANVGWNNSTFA
Method: Normal or transformed cell lysates can be used to determine the concentration inhibiting the enzymatic activity of MIF present in cell lysates. Cells are cultured in the appropriate media to the required number of cells, collected, and lysed. Compounds to be characterized are solubilized in DMSO and serial dilutions are performed in order to obtain a range of concentrations including complete and no quantifiable inhibition.

Du 145 = assay: Inhibition of tumor cells proliferation (CellTiter Glo); type: cell-based; conditions: Homo sapiens, 72 hours
Method: Inhibition of the proliferation of tumor cells was investigated in vitro in several tumor cell lines. Cells of the desired tumor cell line were plated at 2×10^5 cells/ml in 96 well plates. Twice the indicated concentrations of the compounds of the invention were added to cells the following day in an equal volume of media. 72 hours later, cells were lysed and subjected to ATP determination using the CellTiter Glo-Luminescent Cell Viability Assay kit (Promega, Madison, Wis.). Experiments were done in triplicate. Results for the inhibition of cells proliferation are reported as IC50 (the concentration leading to a 50% inhibition of proliferation of the cell population) and are listed in Table 6. FIGS. 3 and 4 show bar graphs comparing the IC50s of specific embodiments of compounds of the invention across multiple tumor cell lines.

[4] = Microsomal stability in human liver microsomes; type: in vitro ADME; conditions: both, human, microsomes, pH 7.4
Method: Stability in human liver microsomes was tested over […] at 37° C. using pooled mixed gender human liver microsomes. Liver microsomes were prepared at 1.0 mg/ml of microsomal protein in a 100 mM potassium phosphate pH 7.4 buffer with 1 mM NADPH. The media was incubated at 37° C. with the compound in solution in DMSO. The concentration of the compound was followed by LC/MS-MS as a function of time. Samples were assayed at t=0, 30, 60 and 120 minutes. Testosterone was used as a positive control. The same experiment was performed with mouse liver microsomes instead of human liver microsomes.

Compound | Body weight and clinical signs of toxicity (pancreatic tumor model) | Metastatic tumor burden (pancreatic tumor model) | Survival (pancreatic tumor model) | Brain penetration classification (MDR1-MDCK monolayers) | P-gp Substrate (MDR1-MDCK monolayers) | Efflux (MDR1-MDCK monolayers) | Caco-2 Permeability Class (Caco-2 monolayers) | Caco-2 Permeability Papp A-B (Caco-2 monolayers; pH 7.4, 2 hours) | fraction unbound (in vitro) | Blood Vessel Density ([2]; 0.3 nM per CAM) | Blood Vessel Density ([2]; 3 nM per CAM) | Blood Vessel Density ([2]; 30 nM per CAM) | Anti-angiogenic properties [2] | Vd [3] [L/kg] | clearance [3] [mL/min/kg] | half-life [3] [h] | IC50 (MIF) [µM] | IC50 (Du 145) [µM] | Metabolic Stability in Human Microsomes % Remaining ([4]; 0 h) [%] | Metabolic Stability in Human Microsomes % Remaining ([4]; 1 h) [%] | also measured
Fc1ccccc1-c1cc(I)ncn1 [ACT-MIF-003, 4-Iodo-6-(2-fluorophenyl)pyrimidine] | no body weight loss and no clinical signs of toxicity | limited the metastatic tumor burden | significant impact on survival | High | No | High | High | 2.1 | 0.038 | 11.6 ± 1.2 | 4.2 ± 1.2 | 4.1 ± 0.7 | high anti-angiogenic properties | 1.93 | 197 | 1.5 | 0.2 | 16.5 | 100 | 57 | Caco-2 Permeability Papp B-A (Caco-2 monolayers; basolateral-to-apical, pH 7.4, 2 hours): 2.6; efflux ratio at 2 h [1]: 1.2
COc1ccc(-c2cc(I)ncn2)c(F)c1 [ACT-MIF-002, 4-Iodo-6-(2-fluoro-4-methoxyphenyl)pyrimidine] | no body weight loss and no clinical signs of toxicity | limited the metastatic tumor burden | significant impact on survival | Low | No | High | Low | 0.2 | 0.021 | 9.4 ± 2.4 | 8.6 ± 2.6 | 4.4 ± 1.3 | high anti-angiogenic properties | 2.12 | 132 | 1.66 | 0.07 | 24.9 | 100 | <2 | Bone metastases, histopathology of lumbar region (pancreatic tumor model; FIG. 11): no evidence of bone metastases; Caco-2 Efflux (Caco-2 monolayers): 1.7
